Several values for one entry are separate records, joined by “and”; a condition that tells them apart may be missing. Identical values can stand only once.
Assays:
[1] = system: DPP-4; parameters: method as in PMID 31441917; conditions: test concentration of 200 μM; cited from earlier work
[2] = molecular target: T1, DPP-4 (human recombinant) (Homo sapiens, UniProt P27487); assay: In vitro assay for DPP-4 inhibitory activity (fluorescence, Gly-Pro-AMC); assay type: biochemical; conditions: for inhibition at 200 µM / % Inhibition at 200μM: flavonoid 200 μM, mean ± SD, three independent experiments; for inhibition at 200 µM: read-out: % Inhibition at 200μM; for IC50: DPP-4 inhibition, fluorescence method;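 for all read-outs here: fluorescence of released AMC (excitation 360 nm, emission 460 nm) followed kinetically over 30 min at 37 °C in Tris-HCl pH 8.0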
T1 construct: purchased Sigma Aldrich D3446
T1 sequence (P27487 whole entry): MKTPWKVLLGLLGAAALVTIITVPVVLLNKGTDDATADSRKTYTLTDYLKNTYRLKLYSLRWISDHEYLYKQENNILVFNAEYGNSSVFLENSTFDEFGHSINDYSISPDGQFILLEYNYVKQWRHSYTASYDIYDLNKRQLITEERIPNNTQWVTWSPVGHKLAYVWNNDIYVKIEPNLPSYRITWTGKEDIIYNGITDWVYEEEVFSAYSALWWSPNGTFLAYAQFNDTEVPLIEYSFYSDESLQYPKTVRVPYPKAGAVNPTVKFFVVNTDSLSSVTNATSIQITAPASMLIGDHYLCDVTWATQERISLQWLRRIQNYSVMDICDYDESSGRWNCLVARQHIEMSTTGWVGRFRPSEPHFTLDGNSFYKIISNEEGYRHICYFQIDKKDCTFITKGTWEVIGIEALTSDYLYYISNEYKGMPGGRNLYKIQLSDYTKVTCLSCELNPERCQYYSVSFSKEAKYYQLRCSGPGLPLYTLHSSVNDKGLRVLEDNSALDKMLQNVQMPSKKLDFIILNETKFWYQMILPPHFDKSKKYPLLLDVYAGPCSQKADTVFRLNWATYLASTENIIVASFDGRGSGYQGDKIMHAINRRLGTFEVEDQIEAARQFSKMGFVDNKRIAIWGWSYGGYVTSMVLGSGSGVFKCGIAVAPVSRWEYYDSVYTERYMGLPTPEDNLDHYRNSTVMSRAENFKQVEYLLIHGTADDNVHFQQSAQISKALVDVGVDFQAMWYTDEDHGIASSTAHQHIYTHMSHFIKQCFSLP

[3] = molecular target: T1, DPP-4 (human recombinant); assay: Inhibition kinetic analysis (V vs [DPP-4], Lineweaver-Burk, Dixon and Cornish-Bowden plots); assay type: biochemical; conditions: for Kiu (uncompetitive inhibition constant): Cornish-Bowden equation; for Inhibition type: Lineweaver-Burk, Dixon and Cornish-Bowden plots, Gly-Pro-AMC 50–200 μM, DPP-4 0.42 mU/mL; for reversibility of the inhibition: plots of V vs [DPP-4] 0.21–0.84 mU/mL, 200 μM Gly-Pro-AMC; for Ki: Dixon equation, read-out: Kic (competitive inhibition constant); for 1/Kiu: reciprocal of uncompetitive inhibition constant
[4] = molecular target: T1, DPP-4 (human recombinant); assay: Fluorescence quenching experiments (Stern-Volmer, binding constant, thermodynamic parameters); conditions: for Kq (quenching rate constant): τ0 10^−8 s; for ΔH (enthalpy change) / ΔS (entropy change): from Kb at 298 and 310 K;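 for all read-outs here: intrinsic DPP-4 fluorescence emission scanned 290–500 nm, corrected for flavonoid background and inner-filter absorbance, compared without versus with flavonoid quencher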
[5] = system: DPP-4; parameters: method as in PMID 33063510; conditions: different DPP-IV inhibitor screening assay kit; cited from earlier work

| inhibition at 200 µM [2] [%] | Kiu (uncompetitive inhibition constant) [3] | Inhibition type [3] | reversibility of the inhibition [3] | % Inhibition at 200μM [2] [%] | KSV (Stern-Volmer quenching constant) ([4]; 298 K) | n (number of binding sites) ([4]; 298 K) | ΔG (Gibbs free-energy change) ([4]; 298 K) [kJ/mol] | Kq (quenching rate constant) ([4]; 298 K) | KSV (Stern-Volmer quenching constant) ([4]; 310 K) | n (number of binding sites) ([4]; 310 K) | Kq (quenching rate constant) ([4]; 310 K) | ΔH (enthalpy change) [4] [kJ/mol] | ΔS (entropy change) [4] [J mol^−1K^−1] | Ki [3] [µM] | IC50 [2] | Structure (SMILES) | inhibitory percentage [1] | also measured |
| --- | --- | --- | --- | --- | --- | --- | --- | --- | --- | --- | --- | --- | --- | --- | --- | --- | --- | --- |
| 46.4 ± 1.49 |  |  |  |  |  |  |  |  |  |  |  |  |  |  |  | O=c1cc(-c2ccc(O)cc2)oc2cc(O)cc(O)c12 [A1, Apigenin] | 44 ± 2% |  |
| < 10 |  |  |  |  |  |  |  |  |  |  |  |  |  |  |  | O=C1C[C@@H](c2ccc(O)cc2)Oc2cc(O)cc(O)c21 [C6, Naringenin] | lower than 20% |  |
| 19.9 ± 0.65 |  |  |  |  |  |  |  |  |  |  |  |  |  |  |  | O=C1c2c(O)cc(O)cc2OC(c2ccc(O)c(O)c2)C1O (stereo not shown) [C8, Taxifolin] | lower than 20% |  |
| > 50 | 14.8 ± 0.22 10^−5 mol L^−1 | Mixed | reversible | 62.10 ±0.16 | 4.83 ± 0.01 ×10^4 L mol^−1 | 1.04 ± 0.02 | -27.754 | 4.83 ± 0.01 ×10^12 L mol^−1 s^−1 | 4.08 ± 0.01 ×10^4 L mol^−1 | 1.03 ± 0.02 | 4.08 ± 0.01 ×10^12 L mol^−1 s^−1 | -14.148 | 45.66 |  |  | O=c1c(O[C@@H]2O[C@H](CO)[C@H](O)[C@H](O)[C@H]2O)c(-c2ccc(O)c(O)c2)oc2cc(O)cc(O)c12 [E4, Hyperoside] |  | ΔG (Gibbs free-energy change) ([4]; 310 K): -28.301 kJ/mol |
| > 50 | 22.3 ± 0.15 10^−5 mol L^−1 | Mixed | reversible | 57.50 ±1.28 | 7.212 ± 0.01 ×10^4 L mol^−1 | 1.22 ± 0.02 | -33.72 | 7.212 ± 0.01 ×10^12 L mol^−1 s^−1 | 6.389 ± 0.01 ×10^4 L mol^−1 | 1.21 ± 0.02 | 6.389 ± 0.01 ×10^12 L mol^−1 s^−1 | -8.105 | 85.93 | 116 ± 2.1 | 167 µM and < 200 µM | COc1cc(-c2oc3cc(O)cc(O)c3c(=O)c2O[C@@H]2O[C@H](CO[C@@H]3O[C@@H](C)[C@H](O)[C@@H](O)[C@H]3O)[C@@H](O)[C@H](O)[C@H]2O)ccc1O [E21, Narcissoside] |  | 1/Kic ([3]; reciprocal of competitive inhibition constant): 0.86 ± 0.02 10^4 L mol^−1; 1/Kiu [3]: 0.44 ± 0.03 10^4 L mol^−1; ΔG (Gibbs free-energy change) ([4]; 310 K): -34.75 kJ/mol |
| 39.4 ± 0.58 |  |  |  |  |  |  |  |  |  |  |  |  |  |  |  | O=c1c(O)c(-c2ccc(O)c(O)c2)oc2cc(O)cc(O)c12 [E23, Quercetin] | 46 ± 2% | inhibitory percentage relative to rhamnetin (E27) ([2]; ratio of % inhibition at 200 μM, quercetin vs rhamnetin): 1.77 times |
| > 50 | 18.37 ± 0.24 10^−5 mol L^−1 | Mixed | reversible | 68.05 ±0.15 | 3.64 ± 0.04 ×10^4 L mol^−1 | 1.05 ± 0.01 | -27.52 | 3.64 ± 0.04 ×10^12 L mol^−1 s^−1 | 3.08 ± 0.06 ×10^4 L mol^−1 | 1.04 ± 0.01 | 3.08 ± 0.06 ×10^12 L mol^−1 s^−1 | -8.246 | 64.68 | 74.3 ± 1.2 | 81.1 ± 4.14 µM | OCC1OC(Oc2cc3c(O)cc(O)cc3[o+]c2-c2ccc(O)c(O)c2)C(O)C(O)C1O (stereo not shown) [F2, Cyanidin 3-O-glucoside chloride] |  | 1/Kiu [3]: 0.57 ± 0.03 10^4 L mol^−1; inhibitory percentage relative to cyanidin (F1) ([2]; ratio of % inhibition at 200 μM, cyanidin 3-O-glucoside vs cyanidin): 3.62 times; IC50 [5]: 8.26 µM |
| > 50 | 26.7 ± 0.34 10^−5 mol L^−1 |  |  |  |  |  |  |  |  |  |  | -7.952 |  | 98.2 ± 3.4 | 150 µM and < 200 µM | O=C(/C=C/c1ccc(O)cc1)c1ccc(O)cc1O [G1, Isoliquiritigenin] |  |  |
